According to ChEMBL document CHEMBL1142035:

These compounds were tested against MAP kinase-activated protein kinase 2 (Homo sapiens, UniProt P49137).
Sequence of MAP kinase-activated protein kinase 2 (P49137 whole entry): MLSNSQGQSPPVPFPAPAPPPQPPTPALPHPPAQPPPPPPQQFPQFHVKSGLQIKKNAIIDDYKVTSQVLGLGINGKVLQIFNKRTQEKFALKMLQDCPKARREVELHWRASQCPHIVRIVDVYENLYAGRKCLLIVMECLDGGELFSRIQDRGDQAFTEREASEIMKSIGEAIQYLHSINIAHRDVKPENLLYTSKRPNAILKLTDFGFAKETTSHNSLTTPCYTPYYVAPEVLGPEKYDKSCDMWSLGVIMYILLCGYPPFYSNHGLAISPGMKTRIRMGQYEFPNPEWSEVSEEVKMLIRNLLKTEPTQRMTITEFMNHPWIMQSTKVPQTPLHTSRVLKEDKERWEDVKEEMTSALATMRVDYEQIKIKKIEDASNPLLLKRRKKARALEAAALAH
Description: Concentration of 50% inhibition by compound towards mitogen activated protein kinase -activated protein kinase 2

IC50, > 200 µM:
N#Cc1c(N)nc2c(c1N)Cc1ccccc1S2
N#Cc1c(N)nc2c(c1N)Cc1ccccc1S2(=O)=O
CCNc1cc2c(c(NCC)c1C#N)Cc1cc(O)c(O)cc1O2
COc1ccc2c(c1)Oc1cc(N)c(C#N)c(N)c1C2c1ccccc1 (stereo not given)
N#Cc1c(N)cc2c(c1N)C(c1ccccc1)c1ccc(O)cc1O2 (stereo not given)
